Experiments:
[1] = system: common chickweed, Stellaria media; assay: Herbicidal efficacy screen, potter tower spray, necrosis assessed; assay type: in vivo
Protocol: (§1) Compounds 22, 23 and 24 were screened for herbicidal efficacy against target plants: garden cress, Lepidium sativum, common chickweed, Stellaria media, and white mustard […] alba Plants were obtained as seeds and were grown to the 2-4 true leaf stage. Plants were grown under laboratory conditions, individually in seed trays. Each plant (in an approximately 3 cm diameter plug) was then detached from the tray for spraying. The compounds were screened at a range of five concentrations, diluted in acetone and TweenTM. A carrier only control was also conducted. Treatments were applied directly onto the plants, using a potter tower, at a specified application rate. One plant of each species was sprayed using a potter tower. The 3 different types of plants were placed on a 10 cm diameter platform directly beneath the potter sprayer and sprayed simultaneously. The growth of the plants and any Phytotoxicity effects were then assessed at intervals over 21 days, according to EPPO guideline PP1/135. Five replicas were performed for each treatment, for each species. In the tables below C represents a percentage increase in necrosis relative to the control of 0.1-50; B represents a percentage inhibition of 50-80; and A represents a percentage inhibition of 80-100.

[2] = system: garden cress, Lepidium sativum; assay: as above; assay type: in vivo
Protocol: as §1

[3] = 12.5 g/ha, day 1 post application
[4] = 12.5 g/ha, day 2 post application
[5] = 12.5 g/ha, day 3 post application
[6] = 12.5 g/ha, day 4 post application
[7] = 12.5 g/ha, day 5 post application
[8] = 12.5 g/ha, day 7 post application
[9] = 12.5 g/ha, day 10 post application
[10] = 25 g/ha, day 1 post application
[11] = 25 g/ha, day 2 post application
[12] = 25 g/ha, day 3 post application
[13] = 25 g/ha, day 4 post application
[14] = 25 g/ha, day 5 post application
[15] = 25 g/ha, day 7 post application
[16] = 25 g/ha, day 10 post application
[17] = 50 g/ha, day 1 post application
[18] = 50 g/ha, day 2 post application
[19] = 50 g/ha, day 3 post application
[20] = 50 g/ha, day 4 post application
[21] = 50 g/ha, day 5 post application
[22] = 50 g/ha, day 7 post application
[23] = 50 g/ha, day 10 post application
[24] = 100 g/ha, day 1 post application
[25] = 100 g/ha, day 2 post application
[26] = 100 g/ha, day 3 post application
[27] = 100 g/ha, day 4 post application
[28] = 100 g/ha, day 5 post application
[29] = 100 g/ha, day 7 post application
[30] = 100 g/ha, day 10 post application
[31] = 200 g/ha, day 1 post application
[32] = 200 g/ha, day 2 post application
[33] = 200 g/ha, day 3 post application
[34] = 200 g/ha, day 4 post application

CC(C)C(C)S(=O)(=O)NCc1cc(-n2c(=O)cc(C(F)(F)F)n(C)c2=O)c(F)cc1Cl (stereo not shown) [Compound 24, N-[[2-Chloro-4-fluoro-5-[3-methyl-2,6-dioxo-4-(trifluoromethyl)pyrimidin-1-yl]phenyl]methyl]-3-methyl-butane-2-sulfonamide]
Average of necrosis [1, 3]: C (C represents a percentage increase in necrosis relative to the control of 0.1-50)
Average of necrosis [1, 4]: C (C represents a percentage increase in necrosis relative to the control of 0.1-50)
Average of necrosis [1, 5]: C (C represents a percentage increase in necrosis relative to the control of 0.1-50)
Average of necrosis [1, 6]: C (C represents a percentage increase in necrosis relative to the control of 0.1-50)
Average of necrosis [1, 7]: C (C represents a percentage increase in necrosis relative to the control of 0.1-50)
Average of necrosis [1, 8]: C (C represents a percentage increase in necrosis relative to the control of 0.1-50)
Average of necrosis [1, 9]: C (C represents a percentage increase in necrosis relative to the control of 0.1-50)
Average of necrosis [1, 10]: C (C represents a percentage increase in necrosis relative to the control of 0.1-50)
Average of necrosis [1, 11]: C (C represents a percentage increase in necrosis relative to the control of 0.1-50)
Average of necrosis [1, 12]: C (C represents a percentage increase in necrosis relative to the control of 0.1-50)
Average of necrosis [1, 13]: C (C represents a percentage increase in necrosis relative to the control of 0.1-50)
Average of necrosis [1, 14]: C (C represents a percentage increase in necrosis relative to the control of 0.1-50)
Average of necrosis [1, 15]: C (C represents a percentage increase in necrosis relative to the control of 0.1-50)
Average of necrosis [1, 16]: C (C represents a percentage increase in necrosis relative to the control of 0.1-50)
Average of necrosis [1, 17]: C (C represents a percentage increase in necrosis relative to the control of 0.1-50)
Average of necrosis [1, 18]: C (C represents a percentage increase in necrosis relative to the control of 0.1-50)
Average of necrosis [1, 19]: C (C represents a percentage increase in necrosis relative to the control of 0.1-50)
Average of necrosis [1, 20]: C (C represents a percentage increase in necrosis relative to the control of 0.1-50)
Average of necrosis [1, 21]: A (A represents a percentage inhibition of 80-100)
Average of necrosis [1, 22]: A (A represents a percentage inhibition of 80-100)
Average of necrosis [1, 23]: A (A represents a percentage inhibition of 80-100)
Average of necrosis [1, 24]: C (C represents a percentage increase in necrosis relative to the control of 0.1-50)
Average of necrosis [1, 25]: C (C represents a percentage increase in necrosis relative to the control of 0.1-50)
Average of necrosis [1, 26]: C (C represents a percentage increase in necrosis relative to the control of 0.1-50)
Average of necrosis [1, 27]: B (B represents a percentage inhibition of 50-80)
Average of necrosis [1, 28]: B (B represents a percentage inhibition of 50-80)
Average of necrosis [1, 29]: B (B represents a percentage inhibition of 50-80)
Average of necrosis [1, 30]: A (A represents a percentage inhibition of 80-100)
Average of necrosis [1, 31]: C (C represents a percentage increase in necrosis relative to the control of 0.1-50)
Average of necrosis [1, 32]: C (C represents a percentage increase in necrosis relative to the control of 0.1-50)
Average of necrosis [1, 33]: C (C represents a percentage increase in necrosis relative to the control of 0.1-50)
Average of necrosis [1, 34]: C (C represents a percentage increase in necrosis relative to the control of 0.1-50)
Average of necrosis ([1]; 200 g/ha, day 5 post application): A (A represents a percentage inhibition of 80-100)
Average of necrosis ([1]; 200 g/ha, day 7 post application): A (A represents a percentage inhibition of 80-100)
Average of necrosis ([1]; 200 g/ha, day 10 post application): A (A represents a percentage inhibition of 80-100)
Average of necrosis [2, 3]: C (C represents a percentage increase in necrosis relative to the control of 0.1-50)
Average of necrosis [2, 4]: C (C represents a percentage increase in necrosis relative to the control of 0.1-50)
Average of necrosis [2, 5]: C (C represents a percentage increase in necrosis relative to the control of 0.1-50)
Average of necrosis [2, 6]: C (C represents a percentage increase in necrosis relative to the control of 0.1-50)
Average of necrosis [2, 7]: C (C represents a percentage increase in necrosis relative to the control of 0.1-50)
Average of necrosis [2, 8]: C (C represents a percentage increase in necrosis relative to the control of 0.1-50)
Average of necrosis [2, 9]: B (B represents a percentage inhibition of 50-80)
Average of necrosis [2, 10]: C (C represents a percentage increase in necrosis relative to the control of 0.1-50)
Average of necrosis [2, 11]: C (C represents a percentage increase in necrosis relative to the control of 0.1-50)
Average of necrosis [2, 12]: C (C represents a percentage increase in necrosis relative to the control of 0.1-50)
Average of necrosis [2, 13]: C (C represents a percentage increase in necrosis relative to the control of 0.1-50)
Average of necrosis [2, 14]: C (C represents a percentage increase in necrosis relative to the control of 0.1-50)
Average of necrosis [2, 15]: C (C represents a percentage increase in necrosis relative to the control of 0.1-50)
Average of necrosis [2, 16]: C (C represents a percentage increase in necrosis relative to the control of 0.1-50)
Average of necrosis [2, 17]: C (C represents a percentage increase in necrosis relative to the control of 0.1-50)
Average of necrosis [2, 18]: C (C represents a percentage increase in necrosis relative to the control of 0.1-50)
Average of necrosis [2, 19]: B (B represents a percentage inhibition of 50-80)
Average of necrosis [2, 20]: B (B represents a percentage inhibition of 50-80)
Average of necrosis [2, 21]: B (B represents a percentage inhibition of 50-80)
Average of necrosis [2, 22]: A (A represents a percentage inhibition of 80-100)
Average of necrosis [2, 23]: A (A represents a percentage inhibition of 80-100)
Average of necrosis [2, 24]: C (C represents a percentage increase in necrosis relative to the control of 0.1-50)
Average of necrosis [2, 25]: C (C represents a percentage increase in necrosis relative to the control of 0.1-50)
Average of necrosis [2, 26]: C (C represents a percentage increase in necrosis relative to the control of 0.1-50)
Average of necrosis [2, 27]: B (B represents a percentage inhibition of 50-80)
Average of necrosis [2, 28]: B (B represents a percentage inhibition of 50-80)
Average of necrosis [2, 29]: B (B represents a percentage inhibition of 50-80)
Average of necrosis [2, 30]: B (B represents a percentage inhibition of 50-80)
Average of necrosis [2, 31]: C (C represents a percentage increase in necrosis relative to the control of 0.1-50)
Average of necrosis [2, 32]: C (C represents a percentage increase in necrosis relative to the control of 0.1-50)
Average of necrosis [2, 33]: C (C represents a percentage increase in necrosis relative to the control of 0.1-50)
Average of necrosis [2, 34]: C (C represents a percentage increase in necrosis relative to the control of 0.1-50)

— US9951028B2, “Agricultural chemicals” (REDAG CROP PROTECTION LTD, priority 2013, dated 2018)
